Experimental findings from ChEMBL document CHEMBL2007661, “Compounds: GSK PKIS; Assays: UNC Frye lab” (2012) are described below.

The target of assay [1] is T1, Inhibitor of nuclear factor kappa-B kinase subunit alpha (Homo sapiens) (UniProt O15111).
T1 sequence (whole entry): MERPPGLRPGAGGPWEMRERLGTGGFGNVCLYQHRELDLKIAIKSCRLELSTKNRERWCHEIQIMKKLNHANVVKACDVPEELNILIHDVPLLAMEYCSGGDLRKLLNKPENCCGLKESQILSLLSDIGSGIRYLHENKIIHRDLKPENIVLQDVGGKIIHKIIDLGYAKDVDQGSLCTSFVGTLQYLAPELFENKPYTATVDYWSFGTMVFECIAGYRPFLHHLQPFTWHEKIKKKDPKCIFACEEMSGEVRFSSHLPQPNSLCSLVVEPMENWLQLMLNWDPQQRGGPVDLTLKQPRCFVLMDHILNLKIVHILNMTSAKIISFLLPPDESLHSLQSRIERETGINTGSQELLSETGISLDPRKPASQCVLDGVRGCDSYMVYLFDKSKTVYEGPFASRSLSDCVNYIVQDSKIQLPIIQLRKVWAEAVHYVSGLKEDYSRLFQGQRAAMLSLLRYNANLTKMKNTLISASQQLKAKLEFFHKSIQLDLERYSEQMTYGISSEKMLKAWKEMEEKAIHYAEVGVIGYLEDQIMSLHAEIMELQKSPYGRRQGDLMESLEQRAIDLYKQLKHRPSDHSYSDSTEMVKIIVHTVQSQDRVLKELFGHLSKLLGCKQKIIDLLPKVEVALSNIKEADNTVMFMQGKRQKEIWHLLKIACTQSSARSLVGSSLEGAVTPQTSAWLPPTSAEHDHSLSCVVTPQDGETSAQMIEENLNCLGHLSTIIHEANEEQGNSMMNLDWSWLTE
Particulars: at 1 µM.

The target in assay [2] is T2, Inhibitor of nuclear factor kappa-B kinase subunit epsilon (Homo sapiens) (UniProt Q14164).
T2 sequence (whole entry): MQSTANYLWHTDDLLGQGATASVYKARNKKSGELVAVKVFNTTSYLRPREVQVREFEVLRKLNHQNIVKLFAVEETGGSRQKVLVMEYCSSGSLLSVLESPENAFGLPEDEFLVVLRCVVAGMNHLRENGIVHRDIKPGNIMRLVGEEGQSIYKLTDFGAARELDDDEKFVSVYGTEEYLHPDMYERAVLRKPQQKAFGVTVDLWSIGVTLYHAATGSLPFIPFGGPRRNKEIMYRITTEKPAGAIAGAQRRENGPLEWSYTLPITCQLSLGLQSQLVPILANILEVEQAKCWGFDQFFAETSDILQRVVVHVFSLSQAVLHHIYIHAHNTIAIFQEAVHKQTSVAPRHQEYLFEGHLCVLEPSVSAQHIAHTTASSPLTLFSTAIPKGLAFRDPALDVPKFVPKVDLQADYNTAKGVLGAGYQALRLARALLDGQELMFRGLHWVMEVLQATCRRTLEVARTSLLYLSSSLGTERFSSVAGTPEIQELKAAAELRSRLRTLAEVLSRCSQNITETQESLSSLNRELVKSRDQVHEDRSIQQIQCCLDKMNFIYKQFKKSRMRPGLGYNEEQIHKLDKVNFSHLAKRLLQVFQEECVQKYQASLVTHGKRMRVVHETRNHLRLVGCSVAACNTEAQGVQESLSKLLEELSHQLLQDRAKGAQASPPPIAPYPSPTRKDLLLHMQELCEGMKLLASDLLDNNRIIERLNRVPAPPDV
The following applies: at 1 µM.

The structures appear in SMILES notation. Several values for one entry are separate records, joined by “and”; a condition that tells them apart may be missing. Identical values can stand only once.

As a reminder, the inhibition is the relative decrease from the control value, in per cent. `COc1ccc2[nH]c3c4[nH]c5ccc(OC)cc5c4c4c(c3c2c1)C(=O)NC4=O`: the inhibition is 12% and 13% in assay [1]; 21% and 20% in assay [2].
For the molecule `CN(C)C(=O)O[C@H]1CN[C@H](C#Cc2cc3ncnc(Nc4ccc(OCc5cccc(F)c5)c(Cl)c4)c3s2)C1`, the inhibition in assay [1] is 2% and 1%; in assay [2] it was 0% and 2%.
In the case of `CS(=O)(=O)CCNCc1nc(-c2ccc3ncnc(Nc4ccc(OCc5cccc(C(F)(F)F)c5)cc4)c3c2)cs1`, the inhibition in assay [1] was -9% and 5%; in assay [2], 0%.
On to `CCn1c(-c2nonc2N)nc2c(N3CCCC3)nccc21`, for which the inhibition in assay [1] is 3% and 2%; in assay [2], -3% and -4%.
As for `CCCN1CCC(c2ccc(Nc3nc(Nc4cc(F)ccc4C(N)=O)c4cc[nH]c4n3)c(OC)c2)CC1`, the inhibition in assay [1] was 3% and 0%; in assay [2], 8% and 6%.
`NS(=O)(=O)c1ccc(Nc2ncc(-c3ccccc3)o2)cc1`: the inhibition in assay [1] is 4% and 3%; in assay [2] it was 2% and 3%.
As for `CC(C)c1ccc(Nc2nccc(-c3cnn4ncccc34)n2)cc1`, the inhibition was 2% and -1% in assay [1]; 15% and 11% in assay [2].
In the case of `c1ccc(Nc2ncc(-c3ccccc3)o2)cc1`, the inhibition in assay [1] is -1% and 0%; in assay [2], 0% and -1%.
Turning to `CCn1c(-c2nonc2N)nc2cnc(Oc3cccc(NC(=O)c4ccc(N(C)C)cc4)c3)cc21`, the inhibition in assay [1] was 5% and 9%; in assay [2], 31%.
Consider `Cc1nc(-c2ccccc2)n2nc(NCCCN3CCOCC3)ncc12`, for which the inhibition was 1% in assay [1]; 3% and 4% in assay [2].
With `C[C@@H](Oc1cc(-n2cnc3ccc(OCC4CCN(C)CC4)cc32)sc1C(N)=O)c1ccccc1C(F)(F)F`, the inhibition in assay [1] was 3%; in assay [2], 2% and 4%.
On to `Fc1ccc(-c2nn3ccccc3c2-c2ccncc2)cc1`, for which the inhibition in assay [1] is 7% and 5%; in assay [2], -4% and 2%.
Take `O=C1NC(=O)C(c2ccc(Cl)cc2)=C1Nc1ccc(Cl)c(C(=O)O)c1`: the inhibition in assay [1] is 3%; in assay [2] it was 1% and 2%.
For `CNC(=O)c1cncc(/C=C/c2ccccc2C)c1`, the inhibition was 4% and -3% in assay [1]; 3% and 1% in assay [2].
As to `COc1cc2ncn(-c3cc(OCc4ccccc4C(F)(F)F)c(C(=O)N(C)C)s3)c2cc1OC`, the inhibition was 1% and 0% in assay [1]; -1% in assay [2].
As for `CCn1c(-c2nonc2N)nc2ccncc21`, the inhibition is 4% and 1% in assay [1]; -2% and -1% in assay [2].
As for `CC(C)COC(=O)c1ccc2c(c1)/C(=C/Nc1ccc(S(N)(=O)=O)cc1)C(=O)N2`, the inhibition is -4% and -9% in assay [1]; 94% in assay [2].
For `NS(=O)(=O)c1ccc(N/N=C2\C(=O)Nc3cccc(CCc4ccncc4)c32)cc1`, the inhibition in assay [1] is 5%; in assay [2], 5% and 3%.
With `COc1cc(Nc2ncc(-c3ccccc3)o2)cc(OC)c1OC`, the inhibition was 1% and 0% in assay [1]; 17% and 13% in assay [2].
Regarding `COc1cccc(-n2cnc3c(N/N=C/c4ccncc4)ncnc32)c1`, the inhibition is 2% and -3% in assay [1]; 1% and 0% in assay [2].
Regarding `Cc1cc(O)cc(C)c1/C=C/c1cncc(C(=O)N(C)C)c1`, the inhibition in assay [1] was -8% and -5%; in assay [2], 3% and 1%.
For `O=C1NC(=O)C(N2CCc3ccccc32)=C1c1ccc(Cl)cc1`, the inhibition in assay [1] is 8% and 9%; in assay [2], 1%.
Consider `NS(=O)(=O)c1ccc(N/N=C2\C(=O)Nc3ccc(C(=O)NCCCn4ccnc4)cc32)cc1`, for which the inhibition in assay [1] was -3% and -4%; in assay [2], 27%.
As to `COC(=O)Nc1nc2ccc(Oc3ccc(NC(=O)Nc4cccc(Cl)c4)cc3)cc2[nH]1`, the inhibition in assay [1] was -3% and -2%; in assay [2], 2% and 1%.
Turning to `CC1(C)CC(n2cnc(-c3ccc(F)cc3)c2-c2ccnc(N)n2)CC(C)(C)N1`, the inhibition is 3% in assay [1]; -1% and 4% in assay [2].
For the molecule `Fc1cccc(COc2ccc(Nc3ncncc3C#Cc3ccccc3)cc2Cl)c1`, the inhibition in assay [1] was 2% and 5%; in assay [2], -4% and 0%.
As for `CCn1cc(-c2ccnc3[nH]ccc23)c(-c2cccc(NC(=O)Nc3ccc(OCc4ccccc4)cc3)c2)n1`, the inhibition in assay [1] was -3%; in assay [2] it was 0% and 1%.
As to `Nc1nc(-c2ccc3c(c2)C(=Cc2cc(Br)c(O)c(Br)c2)C(=O)N3)cs1`, the inhibition was 4% and 2% in assay [1]; 8% and 6% in assay [2].
For the molecule `Cc1nn(C)c2cc(N(C)c3ccnc(Nc4cccc(S(N)(=O)=O)c4)n3)ccc12`, the inhibition is -8% and 0% in assay [1]; 2% in assay [2].
In the case of `c1ccc(-c2nc3n(c2-c2ccc4c(c2)OCO4)CCC3)nc1`, the inhibition in assay [1] was 2% and 0%; in assay [2], 1% and 2%.
`NS(=O)(=O)c1ccc(N/N=C2\C(=O)Nc3ccc(C(=O)NCc4ccncc4)cc32)cc1`: the inhibition in assay [1] is 0%; in assay [2] it was 65%.
Regarding `COc1cccc(-n2ncc3c(N/N=C/c4cccc(F)c4)ncnc32)c1`, the inhibition is 1% and 0% in assay [1]; -1% and 0% in assay [2].
Consider `COc1cc(Nc2ncc3c(C)nc(-c4cccc(C(F)(F)F)c4)n3n2)cc(OC)c1OC`, for which the inhibition is 4% and 2% in assay [1]; 29% and 33% in assay [2].
`COc1cc(N2CCN(C(C)C)CC2)ccc1Nc1nc(Nc2cccc3ncccc23)c2cc[nH]c2n1`: the inhibition in assay [1] was 2% and 9%; in assay [2] it was 2% and 0%.
Regarding `COc1cc(/C=N/Nc2ncnc3c2cnn3C(C)C)ccc1O`, the inhibition in assay [1] was -3% and 1%; in assay [2] it was 0% and -3%.
On to `OCc1ccc(-c2nc(-c3ccccn3)c(-c3ccc4c(c3)OCO4)[nH]2)cc1`, for which the inhibition in assay [1] was 14% and 7%; in assay [2], -2%.
For `O=C(Nc1ccc(Oc2ccc3[nH]c(NC(=O)c4ccco4)nc3c2)cc1)Nc1cc(C(F)(F)F)ccc1F`, the inhibition in assay [1] was -1%; in assay [2], 1% and 0%.
In the case of `NS(=O)(=O)c1ccc(Nc2cc(-c3ccc(O)c(F)c3)n[nH]2)cc1`, the inhibition was 1% and -1% in assay [1]; 4% and 3% in assay [2].
`Nc1ncnc2occ(-c3ccc(NC(=O)Nc4cccc(C(F)(F)F)c4)cc3)c12`: the inhibition in assay [1] was 3%; in assay [2] it was 19% and 16%.
Consider `COC(=O)c1ccc2c(c1)C(=Cc1cc(Br)c(O)c(Br)c1)C(=O)N2`, for which the inhibition in assay [1] was -7%; in assay [2], 51% and 52%.
For `CC1=C(C(=O)Nc2ccc3[nH]ncc3c2)C(c2ccc(Cl)c(Cl)c2)CC(=O)N1` (stereo not given), the inhibition in assay [1] is 6% and -8%; in assay [2], 0% and 1%.
`CCc1ccc(Oc2nccc(-c3c(-c4ccc(F)cc4)ncn3C3CCNCC3)n2)cc1`: the inhibition in assay [1] was 3% and 2%; in assay [2], -3% and -4%.
In the case of `CS(=O)(=O)CCNCc1ccc(-c2ccc3ncnc(Nc4ccc(OCc5ccccc5)c(Cl)c4)c3c2)o1`, the inhibition was 8% and 2% in assay [1]; 1% and -3% in assay [2].
For `COc1cc(C)c(NC(=O)CN(C)C)cc1Nc1nc(Nc2cccc(F)c2C(N)=O)c2cc[nH]c2n1`, the inhibition is 2% and 3% in assay [1]; 9% and 8% in assay [2].
On to `COc1cc(C)c(N(C)C(=O)CN(C)C)cc1Nc1nc(Nc2cccc(F)c2C(N)=O)c2cc[nH]c2n1`, for which the inhibition in assay [1] was 4% and 3%; in assay [2] it was -3% and -2%.
On to `Cc1nnc(-c2ccc(C)c(-c3ccc(C(=O)Nc4cccc(C#N)c4)cc3)c2)o1`, for which the inhibition in assay [1] was -1% and 3%; in assay [2] it was -2% and -1%.
As for `COC(=O)Nc1nc2cc(Oc3ccc(NC(=O)Nc4cccc(C(=O)O)c4)cc3)ccc2[nH]1`, the inhibition in assay [1] is 2% and 4%; in assay [2] it was 0% and -2%.
On to `COc1ccc(C2=C(N3CCc4ccccc43)C(=O)NC2=O)cc1`, for which the inhibition in assay [1] is 2% and 0%; in assay [2], -1% and 0%.
For `CC(C)(CO)CNC(=O)c1ccc2c(c1)/C(=N/Nc1ccc(S(N)(=O)=O)cc1)C(=O)N2`, the inhibition was -7% and 1% in assay [1]; 77% and 76% in assay [2].
For `NCc1ccc(-n2c(-c3nonc3N)nc3cnccc32)cc1`, the inhibition is 40% and 38% in assay [1]; 2% in assay [2].
